Consider eight compounds from ChEMBL document CHEMBL5230132, “Cannabinoid Receptor Subtype 2 (CB2R) in a Multitarget Approach: Perspective of an Innovative Strategy in Cancer and Neurodegeneration” (J Med Chem, 2020).

Test [1] deals with Cholinesterase (Homo sapiens) (UniProt P06276). The test is described as follows: Inhibition of human BChE at 10 uM relative to control.
In test [2] the target is T1, Cannabinoid receptor 1 (Homo sapiens, UniProt P21554). The test is described as follows: Displacement of [3H]CP55940 from human CB1 receptor. A general note: In a radioligand displacement assay an active substance lowers the binding of a labelled ligand.
Test [3] deals with T2, Cannabinoid receptor 2 (Homo sapiens, UniProt P34972). The test is described as follows: Displacement of [3H]CP55940 from human CB2 receptor.
Test [4] has as its target T2, Cannabinoid receptor 2. The test is described as follows: Binding affinity to human CB2 receptor stably expressed in HEK cells assessed as inhibition constant by […]. Format: cell-based.
In test [5] the target is T1, Cannabinoid receptor 1. The test is described as follows: Displacement of [3H]CP55940 from human CB1 receptor stably expressed in CHO cells at 10 uM by radioligand binding assay relative to control. Format: cell-based.
Test [6] concerns the target T1, Cannabinoid receptor 1. The test is described as follows: Binding affinity to CB1 receptor (unknown origin) assessed as inhibition constant.
Test [7] has as its target T2, Cannabinoid receptor 2. The test is described as follows: Binding affinity to CB2 receptor (unknown origin) assessed as inhibition constant.
For test [8], the target named is T2, Cannabinoid receptor 2. The test is described as follows: Displacement of [3H]CP55940 from CB2 receptor (unknown origin) expressed in HEK cell membrane measured after 90 mins by competitive binding assay. The class given is cell membranes.
For test [9], the target named is Cannabinoid receptor 1 (Rattus norvegicus, UniProt P20272). The test is described as follows: Displacement of [3H]CP55940 from rat brain membrane CB1 receptor assessed as inhibition constant incubated for 1 hr by liquid scintillation counting method. Format: cell membranes.
In test [10] the target is T2, Cannabinoid receptor 2. The test is described as follows: Displacement of [3H]CP55940 from human CB2 receptor expressed in HEK293 cell membrane assessed as inhibition constant incubated for 1 hr by liquid scintillation counting method. Format: cell membranes.
Test [11] has as its target T1, Cannabinoid receptor 1. The test is described as follows: Binding affinity to human CB1 receptor stably expressing CHO cells assessed as inhibition constant by radioligand binding assay. Format: cell-based.

T2 sequence (P34972 whole entry): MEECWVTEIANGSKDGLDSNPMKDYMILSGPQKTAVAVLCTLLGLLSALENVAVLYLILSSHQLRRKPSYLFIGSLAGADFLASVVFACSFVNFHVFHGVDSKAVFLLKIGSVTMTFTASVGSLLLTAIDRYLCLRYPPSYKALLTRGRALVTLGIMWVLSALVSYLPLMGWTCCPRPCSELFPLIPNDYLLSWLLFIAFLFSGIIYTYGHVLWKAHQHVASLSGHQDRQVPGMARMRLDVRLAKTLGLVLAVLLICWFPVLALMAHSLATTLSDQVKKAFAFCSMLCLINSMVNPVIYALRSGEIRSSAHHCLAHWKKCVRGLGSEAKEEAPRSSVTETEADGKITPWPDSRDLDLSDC
T1 sequence (P21554 whole entry): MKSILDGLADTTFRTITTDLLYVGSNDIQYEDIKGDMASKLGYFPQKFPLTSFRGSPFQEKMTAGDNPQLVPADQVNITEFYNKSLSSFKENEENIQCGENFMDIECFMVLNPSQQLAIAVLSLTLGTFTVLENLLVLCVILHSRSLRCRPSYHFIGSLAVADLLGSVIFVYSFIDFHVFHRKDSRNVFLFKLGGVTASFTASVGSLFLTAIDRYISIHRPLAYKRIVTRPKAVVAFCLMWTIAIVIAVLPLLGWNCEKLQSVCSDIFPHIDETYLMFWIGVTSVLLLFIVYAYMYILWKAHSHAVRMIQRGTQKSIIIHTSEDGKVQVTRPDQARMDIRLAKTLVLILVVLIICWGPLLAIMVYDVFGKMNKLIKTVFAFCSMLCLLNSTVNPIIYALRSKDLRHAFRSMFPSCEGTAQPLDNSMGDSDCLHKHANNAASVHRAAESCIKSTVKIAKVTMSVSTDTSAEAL
Cannabinoid receptor 1 (Rattus norvegicus, UniProt P20272), sequence (P20272 whole entry): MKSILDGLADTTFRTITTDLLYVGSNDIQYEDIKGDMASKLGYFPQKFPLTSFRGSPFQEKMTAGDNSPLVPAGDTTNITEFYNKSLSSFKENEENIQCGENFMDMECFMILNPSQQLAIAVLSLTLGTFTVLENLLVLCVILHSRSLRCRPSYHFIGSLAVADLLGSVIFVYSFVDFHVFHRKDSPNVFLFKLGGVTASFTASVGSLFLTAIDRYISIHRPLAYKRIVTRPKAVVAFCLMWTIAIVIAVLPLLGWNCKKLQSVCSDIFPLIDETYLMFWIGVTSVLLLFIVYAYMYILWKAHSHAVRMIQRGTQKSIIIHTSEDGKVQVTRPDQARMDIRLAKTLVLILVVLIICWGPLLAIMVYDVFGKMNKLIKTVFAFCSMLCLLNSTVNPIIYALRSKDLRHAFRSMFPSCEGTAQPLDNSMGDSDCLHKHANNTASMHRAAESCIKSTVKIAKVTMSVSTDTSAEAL
Cholinesterase (Homo sapiens), sequence (P06276 whole entry): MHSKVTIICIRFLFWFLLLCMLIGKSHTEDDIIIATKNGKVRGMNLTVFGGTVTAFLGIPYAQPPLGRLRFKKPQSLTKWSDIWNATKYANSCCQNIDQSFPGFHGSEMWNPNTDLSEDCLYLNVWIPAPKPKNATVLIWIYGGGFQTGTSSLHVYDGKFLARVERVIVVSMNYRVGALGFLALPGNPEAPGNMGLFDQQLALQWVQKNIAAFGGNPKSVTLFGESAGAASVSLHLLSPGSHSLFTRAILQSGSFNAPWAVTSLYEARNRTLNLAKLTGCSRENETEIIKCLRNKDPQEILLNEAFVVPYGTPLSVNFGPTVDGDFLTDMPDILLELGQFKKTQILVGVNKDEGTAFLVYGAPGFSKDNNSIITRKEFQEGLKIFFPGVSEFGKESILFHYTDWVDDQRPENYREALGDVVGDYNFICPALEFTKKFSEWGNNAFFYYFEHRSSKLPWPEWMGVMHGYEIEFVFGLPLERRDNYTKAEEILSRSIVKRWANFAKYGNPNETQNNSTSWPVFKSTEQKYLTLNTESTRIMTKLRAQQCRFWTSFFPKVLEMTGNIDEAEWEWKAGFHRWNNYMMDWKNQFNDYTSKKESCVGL

One may read the inhibition as how much of the control response was suppressed. Read a high inhibition as a response far below the control. The compound `CCN(CC)C(=O)c1ccc2c(c1)nc(Nc1ccc(Oc3ccccc3)cc1)n2CCC(C)C` had an inhibition in [1] of 2%.

One may read the Ki as a measure of affinity in units of concentration, obtained from inhibition or displacement. As for `O=C(c1ccc2ccccc2c1)c1cn2c3c(cccc13)OCC2CN1CCOCC1` (stereo not drawn), the inhibition constant (Ki) at Cannabinoid receptor 1 [2] was found to be 62.3 nM; on Cannabinoid receptor 2 [3] it was 3.3 nM.

With `CCOc1ccc(Nc2nc3cc(C(=O)N(CC)CC)ccc3n2CCC(C)C)cc1`, the inhibition constant (Ki) on Cannabinoid receptor 2 [4] amounted to 1.9 nM. At Cannabinoid receptor 1 [5], the Activity came out at 13%.

In the case of `CCCn1c(C)c(C(=O)c2ccc3ccccc3c2)c2ccccc21`, the Ki turned out to be 383 nM at Cannabinoid receptor 1 [6] and 13.8 nM on Cannabinoid receptor 2 [7].

In the case of `CN1CCCCC1Cn1cc(C(=O)c2cc([N+](=O)[O-])ccc2I)c2ccccc21` (stereo not drawn), at Cannabinoid receptor 2 [8], the affinity, expressed as Ki, was 7 nM.

As for `CCCC(C)(C)c1ccc2c(c1)OC(C)(C)C1CC=C(C)CC21` (stereo not drawn), the Ki on Cannabinoid receptor 1 [9] came to 677 nM; on Cannabinoid receptor 2 [10] it was 3.4 nM.

In the case of `CCC(C)(C)c1ccc2c(c1)OC(C)(C)C1CC=C(C)CC21` (stereo not drawn), the values for the inhibitory constant (Ki) on Cannabinoid receptor 1 [9] and at Cannabinoid receptor 2 [10] were 2290 nM and 14 nM, respectively.

On to `CCOc1ccc(Cc2nc3cc(C(=O)N(CC)CC)ccc3n2CCC(C)C)cc1`, for which the inhibition constant Ki at Cannabinoid receptor 1 [11] was above 5 µM.
